The test system of this test is HIV. As to the kind of experiment: Luciferase-based single cycle infectivity assay in LuSIV cells. The conditions noted are these: LuSIV cells treated with 20 mM; all viral input levels. The format is cell-based, HIV-1. The procedure: The effect of 2-OH-βCD on infectivity of HIV was measured in a Luciferase-based single cycle infection assay as previously described (Liao et al., supra, 2000). LuSIV cells were treated with 20 mM 2-OH-βCD in iRPMI or iRPMI alone for 1 hr at 37° C. Cells were then washed with iRPMI before being resuspended in cRPMI at a density of 2×10^6/ml. Cells in 100 Tl were mixed with cRPMI or with dilutions of virus supernatant (62 to 500 pg/ml of p24) from 2-OH-βCD-treated or untreated PM1 cells and allowed to incubate overnight (16 hr) at 37° C. The LuSIV cells were washed with PBS and lysed with 100 Tl of Reporter Lysis Buffer (Promega). After centrifugation at 13,000×g for 30 seconds, 10, μl of lysate were added to 100 μl Luciferase Reagent (Promega) in an opaque 96 well plate and luminescence was measured on a Packard Lumicount luminometer (Downers Grove, Ill.).
The effects of βCD treatment on HIV infectivity were measured in a sensitive single-cycle infection assay based on a cell line transfected with an LTR-luciferase cassette. […] Quantitative measurements of single round infection are obtained with this assay system (Roos et al., Virology 273:307-315, 2000, which is incorporated herein by reference). […]

Regarding “2-hydroxypropyl-β-cyclodextrin [2-OH-βCD]”, the “Reduction of HIV infection of LuSIV cells” value is ~100%.

Source of the values: patent publication US7589080B2, “β-cyclodextrin compositions, and use to prevent transmission of sexually transmitted diseases” (priority 2000, dated 2009).
